# Reference: patent US5800838A, “Composition that inhibits or destroys at least one unicellular living organism containing fluorine F- and Lithium li+” (priority 1987, dated 1998)
# Like-named read-outs stand apart in the source and are kept apart here.
# Key:
# Assay type in all cases: cell-based
# Pseudomonas aeruginosa = assay: MIC of antibiotics by microdilution in liquid medium on plates (Example 18); conditions: Pseudomonas aeruginosa, read-out: MIC (average MIC value)
# Procedure: The unicellular living organism chosen for the trials is Pseudomonas aeruginosa (wild-type strain originating from hospital sources).
# The same methodology as for Examples 11 and 12 was follows. Bacteriostatic analyses were performed with a number of antibiotics belonging to benzylpenicillins, and aminopenicillins, and first and second generation cephalosporins, namely:
# The determination of the MIC was carried out by the microdilution method in liquid medium on plates. Aqueous solutions of each antibiotic are prepared in MUELLER HINION broth, to obtain dilutions in a geometric ratio of 2. The solvent is sterile double-distilled water.
# The preparation of the bacterial inoculum is made with a culture of Pseudomonas aeruginosa, with agitation on a water bath at 37° C. for 4 to 6 hours, giving 10^6 bacteria/ml.
# Three trials were performed per antibiotic and per bacterial inoculum. The trials were performed first with the antibiotics alone (trials a).sctn., and then with the addition of a dose of 1 mg/l of an aqueous solution of lithium fluoride (trials b).sctn. to the dilution of each one in every cup of every plate.
# Klebsiella pneumonia = assay: Phenotype of resistant wild-type hospital strains with activated antibiotics (Example 35); conditions: Fli 4 ppm
# Procedure: Strains Gram+ and Gram- (wild-type hospital) having a resistant phenotype vis a vis standard firstly and secondly used antibiotherapy were experimented on activated antibiotics.
# 250 experiments were conducted on the following strains: Streptococcus group B, C, D, F, G, Staphylococcus aureus, Staphylococcus epidermitis, Klebsiella pneumoniae, Klebsiella spirochete, Klebsiella oxytoca, Proteus mirabilis, Serratia marcescens, Escherichia coli, Citrobacter freundii, Enterobacter cloacae, Enterobacter calcoaceticus, Salmonella spirochete, Salmonella typhimurium, Pseudomonas aeruginosa, Haemophilus influenzae, Haemophilus sphrophilus, Acinetobacter calcoaeticus. […]
# Serratia = assay: Concentrations of cefotaxime inhibiting 50% of the strains
# Procedure: (§1) The activity of CEFOTAXIME was tested, alone and then in the presence of lithium fluoride, with respect to pathogenic strains other than Pseudomonas aeruginosa.
# (§2) The following table expresses the concentrations (mg/l) of cefotaxime inhibiting 50% of the strains.
# Escherichia coli = assay: as above
# Procedure: as §1, §2
# Proteus morganii = assay: as above; conditions: Morganella morganii; alone; F20; read-out: 50% inhibitory concentration
# Procedure: as §1, §2
# Klebsiella = assay: as above
# Procedure: as §1, §2
# Enterobacter = assay: as above
# Procedure: as §1, §2
# [1] = + LiF 1 mg/l, strain lic R βLac^+ OXA
# [2] = + LiF 1 mg/l, strain lic R βLac^+ PSE
# [3] = + LiF 1 mg/l, strain lic R βLac^+ TEM
# [4] = + LiF 1 mg/l, strain lic R βLac^+ cephalosporinase
# [5] = + LiF 1 mg/l, strain lic S βLac^- (first column)
# [6] = + LiF 1 mg/l, strain lic S βLac^- (second column)
# [7] = alone, strain lic R βLac^+ cephalosporinase
# [8] = alone, strain lic S βLac^- (first column)
# [9] = alone, strain lic S βLac^- (second column)
SMILES,MIC (Pseudomonas aeruginosa; [1]),MIC (Pseudomonas aeruginosa; [2]),MIC (Pseudomonas aeruginosa; [3]),MIC (Pseudomonas aeruginosa; [4]),MIC (Pseudomonas aeruginosa; [5]),MIC (Pseudomonas aeruginosa; [6]),"MIC (Pseudomonas aeruginosa; alone, strain lic R βLac^+ OXA)","MIC (Pseudomonas aeruginosa; alone, strain lic R βLac^+ PSE)","MIC (Pseudomonas aeruginosa; alone, strain lic R βLac^+ TEM)",MIC (Pseudomonas aeruginosa; [7]),MIC (Pseudomonas aeruginosa; [8]),MIC (Pseudomonas aeruginosa; [9]),further results
"CCN1CCN(C(=O)N[C@@H](C(=O)N[C@@H]2C(=O)N3C(C(=O)O)=C(CSc4nnnn4C)CS[C@H]23)c2ccc(O)cc2)C(=O)C1=O [CEFOPERAZONE, cefoperazone]",64 µg/mL,32 µg/mL,32 µg/mL,64 µg/mL,4 µg/mL,16 µg/mL,64 µg/mL,64 µg/mL,32 µg/mL,64 µg/mL,8 µg/mL,16 µg/mL,phenotype in presence of Fli (Klebsiella pneumonia): the resistant phenotype was not changed
"CO/N=C(\C(=O)N[C@@H]1C(=O)N2C(C(=O)O)=C(COC(C)=O)CS[C@H]12)c1csc(N)n1 [CEFOTAXIME, cefotaxime]",16 µg/mL,16 µg/mL,32 µg/mL,256 µg/mL,8 µg/mL,16 µg/mL,32 µg/mL,32 µg/mL,32 µg/mL,256 µg/mL,16 µg/mL,32 µg/mL,"IC50 (Serratia; alone, 1123, read-out: 50% inhibitory concentration): 0.076 µg/mL; IC50 (Serratia; alone, MO1117, read-out: 50% inhibitory concentration): 0.3 µg/mL; IC50 (Serratia; in the presence of LiF at 1 mg/l, 1123, read-out: 50% inhibitory concentration): 0.076 µg/mL; IC50 (Serratia; in the presence of LiF at 1 mg/l, MO1117, read-out: 50% inhibitory concentration): 0.3 µg/mL; IC50 (Escherichia coli; alone, K12 J53, read-out: 50% inhibitory concentration): 0.023 µg/mL; IC50 (Escherichia coli; alone, K12 PIP 55, read-out: 50% inhibitory concentration): 0.023 µg/mL; IC50 (Escherichia coli; alone, K12 PIP 111, read-out: 50% inhibitory concentration): 0.023 µg/mL; IC50 (Escherichia coli; alone, SOL, read-out: 50% inhibitory concentration): 0.18 µg/mL; IC50 (Escherichia coli; in the presence of LiF at 1 mg/l, K12 J53, read-out: 50% inhibitory concentration): 0.01 µg/mL; IC50 (Escherichia coli; in the presence of LiF at 1 mg/l, K12 PIP 55, read-out: 50% inhibitory concentration): 0.023 µg/mL; IC50 (Escherichia coli; in the presence of LiF at 1 mg/l, K12 PIP 111, read-out: 50% inhibitory concentration): 0.023 µg/mL; IC50 (Proteus morganii): 0.01 µg/mL; IC50 (Klebsiella; alone, 1103, read-out: 50% inhibitory concentration): 0.023 µg/mL; IC50 (Klebsiella; alone, U28, read-out: 50% inhibitory concentration): 0.28 µg/mL; IC50 (Klebsiella; in the presence of LiF at 1 mg/l, 1103, read-out: 50% inhibitory concentration): 0.01 µg/mL; IC50 (Klebsiella; in the presence of LiF at 1 mg/l, U28, read-out: 50% inhibitory concentration): 0.16 µg/mL; IC50 (Enterobacter; alone, P49, read-out: 50% inhibitory concentration): 27.2 µg/mL; IC50 (Enterobacter; alone, T45, read-out: 50% inhibitory concentration): 0.05 µg/mL; IC50 (Enterobacter; in the presence of LiF at 1 mg/l, P49, read-out: 50% inhibitory concentration): 23.2 µg/mL; IC50 (Enterobacter; in the presence of LiF at 1 mg/l, T45, read-out: 50% inhibitory concentration): 0.023 µg/mL"
